Test results reported in patent US8232299B2, “Phthalimide derivatives that influence cellular vesicular systems, pharmaceutical compositions, and use thereof” (Avidin Kft., priority 2007, dated 2012).

Tests used:
human melanoma (HT168M1) = assay: subcutaneous melanoma tumor model; assay type: in vivo, CB17/scid mice; settings: 40 mg/kg per os, once a day five days per week for 3 weeks from day 7; FIG. 8
Experimental: Slightly anesthetized (diethyl ether narcosis) adult male CB17/scid mice born with immunodeficiency were subcutaneously (s.c.) implanted with 8×10^5 cells from in vitro human melanoma (HT168M1) cultures. After tumor cell inoculation animals were randomly assigned into three groups and their ears were marked. From the 7th day after the tumor cell inoculation mice were treated once a day five days per week for 3 weeks with compound 2 (40 mg/kg), or with compound 3b (40 mg/kg) per os by gavage. Control animals were treated with appropriate dilution of the carrier (DMSO) in a similar manner with similar frequency. Body weight changes were monitored once a week for each animal. When subcutaneous tumor reached palpable size its dimensions were also detected with caliper. Tumor volume was estimated by the formula π/6×a×b^2, where “a” is the longer and “b” is the shorter diameter. 30 days after implantation animals were sacrificed by bleeding in Nembutal (75 mg/kg) anesthesia. Evaluation was based on the mass of the primary tumor.
In this experiment the effect of compound 2 and compound 3b was tested in oral administration at the same dose (40 mg/kg).

tumor necrosis factor = settings: Japanese patent application JP10072346; cited from earlier work
[1] = Japanese patent JP10072346; cited from earlier work
[2] = tested on: RVH human melanoma cell line; assay: cytotoxic effect on melanoma cell line, MTS assay, 48 hours; assay type: cell-based; settings: 48 hours treatment, even at 100 μM concentration; FIG. 4
Experimental: RVH human melanoma cell line was cultured in Minimum Essential Medium Eagle (Sigma, St. Louis, Mo., USA), Na-piruvate, Glutamine, Non-essential amino acids, penicillin (50 IU/ml)-streptomycin ([…]), 10% fetal bovine serum at 37° C., in 5% CO2. Cells were trypsinized with trypsin/EDTA (Sigma-Aldrich, St. Louis, Mo.) on every second day and were passed into 60 or 100 mm plates. When the culture reached the required cell number (approx. 10^6) for the planned experiment 50.00 cell/well was plated into 24 well plates (Costar® 24 Well TC-Treated Microplates) and left overnight to adhere to the bottom of the well. Addition of the substance was performed the following way: next day the culture media was drawn from the adhered cells and media comprising compounds of the present invention in appropriate concentration and well mixed therein was pipetted (2 ml/well) onto the cells. The substance to be examined was diluted in 100% DMSO, this way an amount of DMSO corresponding to the highest concentration of the substance in a given assay were measured in the media of the control wells. After 48 hours of treatment live cells were detected by CellTiter® 96 Aqueous Non-radioactive Cell Proliferation Assay (Promega, Madison, Wis., USA) to determine the number of live cells in the treated and in the control samples.
MTS is converted to formazane in the living cells, which product is dissolved in the media, and its quantity/absorbance can be measured at 490 nm. […] Then, for the determination of the ratio of live cells 20 μl MTS and 1 μl PMS are added to 100 μl media. The enzyme reaction occurs at incubation at 37° C., 5% CO2 for 1 to 4 hours. Formazane produced by the cells is read on ELISA plate reader, from which the number of living cells can be obtained indirectly. Since the inventors performed the experiments in 24 well plates with 50.000 cell/well, the protocol had to be modified. After treatment of the cells for an appropriate time (type of compound, different concentrations), the incubation media (2 ml) containing the examined substance was removed, then 400 μl media containing reagents in the same concentration as given above (333.3 μl media, 66.6 μl MTS, and 3.3 μl PMS per well) was pipetted to the cells. To be able to use ELISA plate reader (Multiskan R C, Thermo Labsystems, Franklin, Mass., USA) 400 μl sample from each single well of the 24 well plate was pipetted into four wells of a 96 well plate (Micromethod plates 96 wells flat form) in 100 μl aliquots. That also helped to eliminate possible errors due to inconsistent pipetting. On each 24 well plate 4 wells were control samples. From these 3 times 100 μl was pipetted onto the 96 well plates, so, altogether 12 controls were provided on each 96 well plate. The remaining 4 wells were for background measurements with 100 μl media containing MTS and PMS as described above.

Mycobacterium avis = assay: inhibition of Mycobacterium avis in THP-1 macrophage culture; assay type: cell-based; settings: 36 mg/l, THP-1 human macrophage cells; FIG. 11
Experimental: In this experiment the effects of compound 3a were analyzed: the inhibition of Mycobacterium avis in macrophage culture was investigated. Human macrophage cells (THP-1) were infected by Mycobacterium avis under in vitro conditions, subsequently treated (compound 3a: 36 mg/l) and untreated cells were harvested after different periods of time and the number of the living Mycobacterium avis bacteria were determined.

[3] = tested on: MCF7 (Human breast adenocarcinoma); assay: cytotoxic effect on breast carcinoma cell line, MTS test, 24 hours; assay type: cell-based; settings: 24 hours incubation, in the concentration range tested
Experimental: (§1) In these experiments HepG2 (human hepatocellular carcinoma) and MCF7 (Human breast adenocarcinoma) cells were used. They were cultured in the following media: For HepG2 Dulbecco's Modified Eagle Medium (D-MEM) (high glucose) (Gibco BRL, Carlsbad, Calif., USA), penicillin (50 IU/ml)-streptomycin ([…]), 10% fetal bovine serum; for MCF7 (Human breast adenocarcinoma) 1:1 mixture of Dulbecco's Modified Eagle Medium (D-MEM) (high glucose) (Gibco BRL, Carlsbad, Calif., USA) and Nutrient Mixture F-12 Ham (Sigma, St. Louis, Mo., USA), penicillin (50 IU/ml)-streptomycin ([…]), 10% fetal bovine serum. Experiments were performed as described in Example 9. with the difference that the incubation time was 24 hours in this case. After the incubation period MTS test (3-(4,5-dimethylthiazol-2-yl)-5-(3-carboxymethoxyphenyl)-2-(4-sulfophenyl)-2H-tetrazolium) (Promega, Madison, Wis., USA) was performed as described above.

[4] = tested on: HepG2 (human hepatocellular carcinoma); assay: cytotoxic effect on hepatocellular carcinoma cell line, MTS test, 24 hours; assay type: cell-based; settings: 24 hours incubation, in the concentration range tested
Experimental: as §1

TNFα = assay: late phase (transcriptionally induced) TNFα secretion of macrophages, ELISA; assay type: cell-based, mice; settings: preformed TNFα washed away after 4 hours, TNFα of next 4 hours; FIG. 3
Experimental: For the detection of late phase TNFα secretion the preformed TNFα, released after LPS induction of the macrophages, was washed away after 4 hours, and the amount of TNFα produced during the next 4 hours was determined by ELISA test. […] Results are depicted in FIG. 3.

[5] = tested on: RAW.264.7 matured mice macrophages; assay: MTS test of vitality / metabolic activity of the macrophages; assay type: cell-based
Experimental: In our experiments we investigated the early TNFα secretion of RAW.264.7 matured mice macrophages. This cell line stores large amount of preformed TNFα. […] Culture supernatant was collected and TNFα content was determined by R&D Duoset ELISA kit (detection limit<62.5 pg/ml). […] So the reduced TNFα level was due to inhibition of the release of preformed TNFα and not due to dying of the cells.
Effects of compound 3a and compound 3b on TNFα secretion and on NF-kappaB activation could have been based on cytotoxicity as well. To exclude that, we determined the metabolic activity of the cells, which is proportional to the cell number, by MTS test 8 hours after the treatment.

SMILES | effect on growth of the subcutaneous primary tumor (tumor mass) (human melanoma (HT168M1)) | production of tumor necrosis factor (tumor necrosis factor) | anti-inflammatory effect [1] | effect on RVH melanoma cells [2] | number of divided (living) bacteria versus untreated group (Mycobacterium avis) | effect on MCF7 cells [3] | effect on HepG2 cells [4] | late TNFα secretion of macrophages (TNFα) | vitality of the cells (MTS test) ([5]; 3 hours after the stimulation with LPS) | metabolic activity of the cells (MTS test) ([5]; 8 hours after the treatment)
CC(C)c1cccc(C(C)C)c1N1C(=O)c2c(F)c(F)c(F)c(F)c2C1=O [Compound 2, 2-(2,6-diizopropylphenyl)-4,5,6,7-tetrafluorisoindolin-1,3-dione] | not significant | inhibits the production of tumor necrosis factor | has anti-inflammatory effect | – | – | – | – | – | – | –
CCNc1c(F)c(F)c(F)c2c1C(=O)N(c1c(C(C)C)cccc1C(C)C)C2=O [Compound 3a, 2-(2,6-diisopropylphenyl)-4-(ethylamino)-5,6,7-trifluoroisoindole-1,3-dione] | – | – | – | weak effect | significantly smaller | weak effect | weak effect | inhibited late TNFα secretion of macrophages in a concentration dependent way | no cell death was detected | not found to be toxic
